{
  "source": "patent US20240327421A1",
  "about": "(Marquette University, priority 2017, published 2024)",
  "key": {"Vitamin D Receptor (VDR)": {"molecular_target": "T1, Vitamin D Receptor (VDR) (Homo sapiens, UniProt P11473)", "T1 sequence (P11473 127-423 limits assumed)": "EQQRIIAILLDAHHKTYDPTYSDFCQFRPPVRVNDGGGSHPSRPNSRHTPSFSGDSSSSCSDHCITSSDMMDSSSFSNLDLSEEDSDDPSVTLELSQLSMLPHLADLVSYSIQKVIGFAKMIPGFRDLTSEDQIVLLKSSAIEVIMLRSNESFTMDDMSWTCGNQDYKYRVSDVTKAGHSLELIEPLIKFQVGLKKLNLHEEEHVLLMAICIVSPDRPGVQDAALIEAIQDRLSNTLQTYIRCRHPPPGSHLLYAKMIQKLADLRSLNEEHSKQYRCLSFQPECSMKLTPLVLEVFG", "test": "GeneBLAzer nuclear hormone receptor specificity assay, VDR", "assay_type": "cell-based", "conditions": "0.25 to 25 μM; listed as ISP358-2"}, "[1]": {"molecular_target": "T2, Peroxisome Proliferator-Activated Receptor (PPARδ) (Homo sapiens, UniProt Q03181)", "T2 sequence (Q03181 211-439 limits assumed)": "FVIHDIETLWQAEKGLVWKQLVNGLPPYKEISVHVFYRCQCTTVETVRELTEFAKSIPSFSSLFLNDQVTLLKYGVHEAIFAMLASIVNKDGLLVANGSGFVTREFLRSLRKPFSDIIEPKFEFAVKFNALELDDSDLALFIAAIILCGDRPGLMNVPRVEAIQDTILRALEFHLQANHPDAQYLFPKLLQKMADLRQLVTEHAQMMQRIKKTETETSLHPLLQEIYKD", "test": "GeneBLAzer nuclear hormone receptor specificity assay, PPARδ", "assay_type": "cell-based", "conditions": "0.25 to 25 μM; listed as ISP358-2", "protocol": "Nuclear Hormone Receptor Specificity Assay. Selectivity measurements were performed using the SelectScreen™ cell-based nuclear receptor profiling service from ThermoFisher (FIG. 3A). This is a FRET-based assay that uses GeneBLAzer™ technology. It detects ligand binding to and activation of a nuclear hormone receptor of interest (ligand binding domain; LBD) that is fused to a GAL4 DNA binding domain (DBD), which upon activation induces expression of beta-lactamase. The assay has a Z′≥0.5 in agonist mode. […]"}, "[2]": {"molecular_target": "T3, Thyroid Hormone Receptor (TRβ) (Homo sapiens, UniProt P10828)", "T3 sequence (P10828 217-461 limits assumed)": "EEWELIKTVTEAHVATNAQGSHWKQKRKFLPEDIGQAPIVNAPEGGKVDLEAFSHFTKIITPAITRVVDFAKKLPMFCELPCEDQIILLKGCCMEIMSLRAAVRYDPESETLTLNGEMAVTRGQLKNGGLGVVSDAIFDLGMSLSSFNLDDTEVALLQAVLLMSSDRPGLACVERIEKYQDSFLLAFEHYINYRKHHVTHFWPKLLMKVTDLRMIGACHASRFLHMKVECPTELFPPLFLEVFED", "test": "GeneBLAzer nuclear hormone receptor specificity assay, TRβ", "assay_type": "cell-based", "conditions": "0.25 to 25 μM; listed as ISP358-2"}, "ovariectomized mice": {"tested_on": "ovariectomized mice", "test": "Peripheral tissue pathology (H&E of liver, kidney, heart)", "assay_type": "in vivo", "conditions": "24 h after single IP injection; 0.5 or 5 mg/kg ISP358-2, 0.05 mg/kg DPN", "protocol": "Assessment of Potential Peripheral Pathology. To assess possible toxicity of ISP358-2 treatment to peripheral organs, ovariectomized mice received a single intraperitoneal injection of vehicle or ISP358-2, and liver, kidney, and heart tissues were collected 24 hours later. […] Tissues were fixed in 10% formalin buffered solution for 24 hours. Twenty specimens were processed and analyzed. Each specimen contained three pieces of tissue. The tissues from each animal was transferred to a labeled cassette and processed on an automated tissue processor following standard procedures. The tissues were then embedded in paraffin wax. No specific orientation of the tissue was performed. Four-micron sections were cut from each paraffin block and placed onto a slide. The slides were then stained using hematoxylin and cosin (H&E) on an automated stainer (FIGS. 13A-13L). The slides were then examined by a pathologist (ACM) who is board certified in anatomical pathology by the American Board of Pathology. All specimens contained three tissue samples corresponding to liver, kidney, and heart. In some instances, portions of adjacent tissues were also present. […] For heart, the myocytes and coronary vessels were examined, (2) evidence of inflammation was evaluated including hepatitis, glomerulonephritis, interstitial nephritis, and myocarditis, and (3) evidence of ischemic changes was examined. […]"}, "[3]": {"test": "Nephelometry (aggregation / solubility)"}, "ERα": {"molecular_target": "T4, ERα (Homo sapiens, UniProt P03372)", "T4 construct": "employs a full length and native ER (comprised of an ER LBD and an ER DBD)", "T4 sequence (P03372 1-595)": "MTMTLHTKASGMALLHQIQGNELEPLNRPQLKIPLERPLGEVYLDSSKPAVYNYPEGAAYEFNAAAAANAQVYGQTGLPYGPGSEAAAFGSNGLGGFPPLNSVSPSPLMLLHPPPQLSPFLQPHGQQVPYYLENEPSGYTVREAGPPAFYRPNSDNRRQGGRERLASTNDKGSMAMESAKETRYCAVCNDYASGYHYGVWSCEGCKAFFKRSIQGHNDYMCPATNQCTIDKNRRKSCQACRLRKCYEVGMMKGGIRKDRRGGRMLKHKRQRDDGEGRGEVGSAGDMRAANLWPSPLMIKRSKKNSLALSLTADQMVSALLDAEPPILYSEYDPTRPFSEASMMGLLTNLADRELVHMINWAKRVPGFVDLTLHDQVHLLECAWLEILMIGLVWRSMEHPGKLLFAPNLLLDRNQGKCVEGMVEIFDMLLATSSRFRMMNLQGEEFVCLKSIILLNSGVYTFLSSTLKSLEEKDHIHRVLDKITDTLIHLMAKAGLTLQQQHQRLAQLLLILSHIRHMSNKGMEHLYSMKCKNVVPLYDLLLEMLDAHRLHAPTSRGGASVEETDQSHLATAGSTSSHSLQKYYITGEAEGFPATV", "test": "Cell-based luciferase reporter assay, full length ERα, antagonist mode"}, "[4]": {"molecular_target": "T5, ERα LBD fused to GAL4 DBD (Homo sapiens, UniProt P03372)", "T5 sequence (P03372 311-547 limits assumed)": "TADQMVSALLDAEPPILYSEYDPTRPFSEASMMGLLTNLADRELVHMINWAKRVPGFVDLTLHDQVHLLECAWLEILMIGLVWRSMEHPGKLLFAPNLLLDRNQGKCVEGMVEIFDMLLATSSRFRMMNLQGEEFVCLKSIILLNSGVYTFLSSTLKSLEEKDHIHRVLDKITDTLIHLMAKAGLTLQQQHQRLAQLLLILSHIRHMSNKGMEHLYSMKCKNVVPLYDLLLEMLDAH", "test": "GeneBLAzer cell-based transcriptional activation, chimeric ERα", "conditions": "agonist mode"}},
  "note": "“Also recorded” adds a separate entry of the source.",
  "data": [
    {"smiles": "OC[C@H]1CC[C@H](c2ccc(O)cc2)CC1", "note": "[Compound 16]", "values": [
      {"measurement": "agonist activity, VDR", "setting": "Vitamin D Receptor (VDR)", "result": "not an agonist; also recorded: no significant off-target activity"},
      {"measurement": "agonist activity, PPARδ", "setting": "[1]", "result": "not an agonist; also recorded: no significant off-target activity"},
      {"measurement": "agonist activity, TRβ", "setting": "[2]", "result": "not an agonist; also recorded: no significant off-target activity"},
      {"measurement": "histological abnormalities / peripheral toxicity in liver, kidney, heart", "setting": "ovariectomized mice", "result": "unremarkable; also recorded: no obvious signs of peripheral toxicity; also recorded: Histological abnormalities were not detected"},
      {"measurement": "solubility / aggregation by nephelometry", "setting": "[3]", "result": "reasonably soluble"},
      {"measurement": "ERα antagonist activity", "setting": "ERα; concentrations up to 10 μM, listed as ISP358-2", "result": "No measurable antagonist activity"},
      {"measurement": "IC50", "setting": "ERα; inhibition of estradiol-induced transcription, read-out: ERα antagon. IC50", "result": "> 10000", "unit": "nM"},
      {"measurement": "IC50", "setting": "[4]", "result": "930 ± 69", "unit": "nM"}
    ]}
  ]
}
